We go through eight compounds from patent publication US8507440B2, “Protein kinase C peptides for use in withdrawal” (The Board of Trustees of the Leland Stanford Junior …, priority 2002, dated 2013).

In one experiment the test system is isolated spinal cords. Put plainly: slow ventral root potential (sVRP) of isolated spinal cord, naloxone-precipitated morphine withdrawal hyperresponsiveness. The conditions noted are these: for sVRP area 30 minutes after naloxone / block of naloxone-precipitated withdrawal hyperresponsiveness of sVRP: morphine 200 nM then naloxone 200 nM, GF109203X 1.2 μM, Go6976 1 μM, εV1-2 2 nM; for block of naloxone-precipitated withdrawal hyperresponsiveness of sVRP: γV5-3 4 nM, Tat 2-4 nM. Format: cell-based, rat. An excerpt: The slow ventral root potential (sVRP) is an electrophysiolgical measurement of nociceptive-related response in the spinal cord lasting approximately 40 seconds (Yanagisawa et al., Eur. J. Pharmacol., 106:231-239 (1984); Akagi H. et al., British J. Pharmacol., 84:663-673 (1985); Otsuka M. et al., J. Physiol., 395:255-270 (1988)). It is evoked by stimulation of a lumbar dorsal root at an intensity sufficient to activate small diameter afferents that transmit nociceptive (painful) stimuli from the periphery to the spinal cord (Lozier A. P. et al., J. Neurophysiol., 74:1001-1009 (1995)). […] Thus, the sVRP is related to pain, and its exaggeration following naloxone is a manifestation of withdrawal which translates to an increase in pain sensation in vivo.
Spinal cords from 4-7 day old rats (Charles River Laboratories) were removed and arranged for electrophysiological recording of the slow ventral root potentials (sVRP) (Woodley S. J., et al., Brain Res., 559:17-21 (1991). Briefly, pups were decapitated under halothane anesthesia and the spinal cord removed to an oxygenated artificial cerebrospinal fluid solution. A suction stimulating electrode was placed on a lumbar dorsal root and a suction recording electrode on the corresponding ipsilateral ventral root. Square wave stimuli 0.2 ms in duration were administered at a constant frequency of 1/50 seconds throughout the experiment. Test agents were applied and the responses were recorded, digitized, and area under the curve measured.
After a baseline reading of the sVRP, morphine (200 nM) was applied to the isolated spinal cords. The sVRP was again recorded to characterize the response to morphine. Naloxone (200 nM) was then applied and the sVRPs recorded.
FIGS. 2A-2D show the results after application of non-specific PKC antagonist, GF109203X (1.2 μM), and of an inhibitor specific to Ca++-dependent PKC isoforms, Go6976 (1 μM).
FIGS. 3A-3B show the results after application of the εPCK antagonist (εV1-2; SEQ ID NO:1, 2 nM), conjugated to a peptide carrier (Tat; SEQ ID NO:3) and the Tat peptide alone (2 nM; SEQ ID NO:3). FIGS. 3C-3D show the results after application of γPKC (γV5-3; SEQ ID NO:2, 4 nM) conjugated to a peptide carrier (Tat; SEQ ID NO:3) and of the Tat peptide alone (4 nm; SEQ ID NO:3).

The test system of a further experiment is postnatal day 7 rats. Put plainly: naloxone-precipitated morphine withdrawal, mechanical threshold and thermal paw withdrawal latency in vivo. On the set-up: species or system rat. The conditions noted are these: for block of naloxone-precipitated morphine withdrawal allodynia and hyperalgesia: 10 μM in 5 μl intrathecally prior to morphine 1 mg/kg s.c., naloxone 0.25 mg/kg 30 min after morphine. Here is the method:
In vivo studies on opiate withdrawal allodynia and hyperalgesia were conducted using postnatal day 7 rats. As described in Example 2, postnatal day 7 rats were given morphine subcutaneously followed 30 minutes later by naloxone or saline. Mechanical threshold using von Frey filaments to produce the flexion withdrawal response of the hind paw and thermal stimulation to measure the paw withdrawal latency were measured as described in Example 2.
FIG. 5A illustrates a treatment protocol where rat pups were given a PKC antagonist intrathecally (e.g., directly into the cerebrospinal fluid surrounding the spinal cord) prior to subcutaneous morphine delivery. Thirty minutes after morphine delivery, naloxone was administered, followed by mechanical allodynia and thermal hyperalgesia testing (as described in Example 2).
Postnatal day 7 Sprague-Dawley rats (Charles River Laboratories) of both sexes were used. For all behavioural experiments rats were maintained at nesting temperature with overhead heatlamps.
To measure mechanical thresholds, rats were placed on an elevated wire mesh (2 mm openings). Von Frey hairs (Stoelting Co., WoodDale, Ill., USA) were used to elicit a cutaneous flexion withdrawal response as described by Fitzgerald et al. (Fitzgerald M., et al., PAIN […] INFANTS, CHILDREN AND ADOLESCENTS; Schetchter and Yaster, Eds., pp 11-32, Williams and Williams (Baltimore, Md.) (1993). Von Frey hairs of increasing intensity were applied three times to the plantar surface of the left hind paw until a paw withdrawal was elicited. The lowest intensity Von Frey hair required to produce a withdrawal reflex was recorded as the response threshold to a low-intensity mechanical stimulus.
Thermal paw withdrawal latencies were measured using the Ugo Basile Plantar Testing apparatus (Stoelting Co., WoodDale, Ill., USA). Briefly, postnatal day 7 rats were placed under inverted Plexiglas enclosures and the plantar surface of the left hindpaw was heated from below with the IR intensity of the lamp set at 30. Two baseline thermal response latency measures were collected prior to morphine administration with a cut-off of 20 seconds enlisted to prevent tissue damage.
Postnatal day 7 rats were administered 1 mg/kg morphine sulfate (Sigma) subcutaneously in 50 μl saline. Mechanical thresholds were measured 15 minutes later to establish analgesia. Rats were returned to their dam. At 30 or 120 minutes post morphine, rats were administered 0.25 mg/kg naloxone (Sigma) subcutaneously in 50 μl saline. Mechanical thresholds and thermal paw withdrawal latencies were measured in 10 minute intervals. Tat conjugated peptide inhibitors specific to the ε (εV1-2; SEQ ID NO:1, 10 μM) and γ ([…]; SEQ ID NO:2, 10 μM) isoforms of PKC, Tat carrier (10 μM), or saline were administered in 5 μl volumes intrathecally via direct lumbar puncture using a sterile 29 gauge 3/10 cc insulin syringe in rats lightly anesthetized with halothane. To allow for complete recovery from anesthetic, animals were administered peptides or control solutions 30 minutes prior to naloxone.
An unpaired T-test was used to determine the significance of post-naloxone measures from baseline measures. Significance between treatment groups for PKC inhibitor studies both in vivo and in vitro was determined by one way analysis of variance (ANOVA) followed by a post-hoc Bonferroni analysis. P-values<0.05 were considered significant. All statistical analysis was done with GraphPad Prism version 3.02.

The subject of experiment [1] is N-methyl-D-aspartate (NMDA) receptor currents. In words: alcohol withdrawal hyperresponsiveness of NMDA-evoked currents in lumbar spinal cord slice motor neurons. Format: cell-based, rat. The source says: Spinal cords were taken from young rats, and slices of these cords were made and placed in artificial cerebrospinal fluid for patch clamp electrophysiological analysis, to characterize the ability of γPKC peptides to mediate alcohol withdrawal hyperresponsiveness of N-methyl-D-aspartate (NMDA) receptor currents. FIG. 7A is a schematic diagram of the technique, where a lumbar spinal cord slice 10 is shown. The placement of a recording electrode 12 and a pipette 14 for application of NMDA relative to a motor neuron 16 is illustrated.
Sprague-Dawley rats at postnatal day 7-10 were anesthetized with halothane, decapitated, and the spinal cords were quickly removed. Slices […] thick were sectioned from the lumbar region. Whole cell voltage clamp recordings were made from visually-identified motor neurons using infrared video microscopy, a 60× water immersion lens, and a MultiClamp 700A patch clamp amplifier. Cells were held at a holding potential of −60 mV in artificial cerebrospinal fluid (ACSF) containing bicuculline methiodide ([…]), strychnine ([…]), and tetrodotoxin ([…]). Postsynaptic currents were evoked by direct pressure application of 2 mM N-methyl-D-aspartate (NMDA) from a pipette positioned near the recorded cell at 1-2 min intervals, as illustrated in FIG. 7A. The area of evoked currents during and following 100 mM ethanol (EtOH) application was measured and normalized to the average baseline current area during the 10 minutes preceding EtOH application. Data are expressed as mean +/−SEM: Statistical significance was determined by one-way ANOVA followed by Dunn's or Tukey's multiple comparison test with significance set at p<0.05.

Experiment [2] relates to 7 day old and 21 day old rats. Put plainly: ethanol withdrawal mechanical allodynia testing (von Frey threshold withdrawal force). Format: in vivo, rat.
In experiment [3] the test system is 7 day old and 21 day old rats. Put plainly: ethanol withdrawal thermal hyperalgesia testing (paw withdrawal latency). In kind it is in vivo, rat. The conditions noted are these: 7 day old rats; intrathecally 4 hours after 4 g/kg 15% EtOH.

Ends that are not written are not given here.

In the case of `CN1CC[C@]23c4c5ccc(O)c4O[C@H]2[C@@H](O)C=C[C@H]3[C@H]1C5` [morphine], the “effect of morphine on sVRP” value in the experiment on isolated spinal cords (morphine 200 nM) is “depressed”. The “paw withdrawal threshold and latency after morphine” value with postnatal day 7 rats (morphine 1 mg/kg s.c., then saline) was “exhibited profound analgesia”.
In the case of `C=CCN1CC[C@]23c4c5ccc(O)c4O[C@H]2C(=O)CC[C@@]3(O)[C@H]1C5` [naloxone], in the experiment with isolated spinal cords, the “sVRP area 30 minutes after naloxone” value is recorded as 140.9 % of control. In addition, the “mechanical threshold and paw withdrawal latency, naloxone after morphine” value in the experiment on postnatal day 7 rats (naloxone 0.25 mg/kg s.c. following 30 minutes of morphine exposure) is “precipitated mechanical allodynia and thermal hyperalgesia”. The “mechanical threshold and paw withdrawal latency, naloxone alone” value in the experiment with postnatal day 7 rats (no morphine) is listed as “did not alter paw withdrawal thresholds to mechanical stimulation or paw withdrawal latency to thermal stimulation”.
Consider “Tat: Tat-derived carrier peptide (Tat 47-57), control for the conjugated inhibitors”, for which the “block of naloxone-precipitated withdrawal hyperresponsiveness of sVRP” value (“block … of sVRP” below) in the experiment on isolated spinal cords is listed as “did not block the withdrawal response”. Also, the “block of naloxone-precipitated morphine withdrawal allodynia and hyperalgesia” value in the experiment with postnatal day 7 rats was “did not prevent allodynia and hyperalgesia”. For the same compound, in experiment [1] (10 nM Tat carrier alone), the “effect on ethanol withdrawal hyperresponsiveness of NMDA-evoked currents” value is given as “does not prevent the symptom”.
Regarding `O=C(O)CN(CC(=O)O)c1ccccc1OCCOc1ccccc1N(CC(=O)O)CC(=O)O` [BAPTA, 1,2-bis(2-aminophenoxy)ethane-N,N,N′,N′-tetraacetic acid, reference compound], in experiment [1] (30 mM in recording pipette), the “ethanol withdrawal hyperresponsiveness of NMDA-evoked currents with calcium chelator” value is “no ethanol-withdrawal hyperresponsiveness”.
For the compound `CN(C)CCCn1cc(C2=C(c3c[nH]c4ccccc34)C(=O)NC2=O)c2ccccc21` [GF109203X], in the experiment with isolated spinal cords, the “sVRP area 30 minutes after naloxone” value is listed as 87 % of control and the “block … of sVRP” value is on record as “blocked the withdrawal hyperresponsivess”.
The like results for `Cn1c2ccccc2c2c3c(c4c5ccccc5n(CCC#N)c4c21)CNC3=O` [Go6976] were, in that order, 127.4 % of control and “did not block withdrawal”.
Take `COc1ccc2c(c[n+](C)c3c4cc5c(cc4ccc23)OCO5)c1OC` [chelerythrine]: in the experiment with isolated spinal cords, the “sVRP area 30 minutes after naloxone” value is 100.1 % of control and the “block … of sVRP” value is given as “did block morphine withdrawal”. The “effect on the response to morphine” value with isolated spinal cords (morphine-exposed spinal cords) is listed as “did not alter the response to morphine”.
Regarding “εV1-2: εPKC antagonist peptide, SEQ ID NO:1, isozyme-specific translocation inhibitor, used Tat-conjugated (EAVSLKPT; also: Tat peptide conjugate; listed as Homo sapiens)”, in the experiment with isolated spinal cords (absence of morphine), the “effect on sVRP of inhibitor alone” value is recorded as “did not alter the sVRP”. Besides, in the experiment on isolated spinal cords, the “sVRP area 30 minutes after naloxone” value is recorded as 102 % of control and the “block … of sVRP” value was “blocked withdrawal hyperresponsiveness”. Besides, the “block of naloxone-precipitated morphine withdrawal allodynia and hyperalgesia” value with postnatal day 7 rats is “effective to block naloxone-precipitated morphine withdrawal allodyina and hyperalgesia”. In addition, the “mechanical allodynia, threshold withdrawal force” value in experiment [2] (7 day old rats, 5 μL of 20 μM intrathecally 5 hours after 4 g/kg 15% EtOH i.p., 6 and 7 hour post-EtOH, versus Tat carrier) was “attenuated mechanical allodynia”. For the same compound, the “mechanical allodynia, threshold withdrawal response” value in experiment [2] (21 day old rats, 10 μL of 20 μM intrathecally 4 hours after 4 g/kg 15% EtOH i.p.) is “slightly attenuated the response at 6 hours and 8 hours post ethanol injection”. Further, the “thermal hyperalgesia, paw withdrawal latency” value in experiment [3] is recorded as “completely prevented thermal hyperalgesia”.
